This note sets out measurements from ChEMBL document CHEMBL1212707, “Decoding endocannabinoid signaling” (Nat Chem Biol, 2009).

Test [1] is filed under the species Mus musculus. The test is described as follows: Inhibition of MAGL in mouse brain. The class given is tissue-based. The note with it: dose or concentration not given here.
For test [2], the system named is Brain. The experiment in a line: Increase in 2-arachidonoylglycerol level in mouse brain relative to untreated control. The class given is functional.
Test [3] in a line: Inhibition of MAGL.

Structures are written as SMILES.

By inhibition is commonly meant the percentage by which the read-out fell short of the control. A higher inhibition goes with strong suppression. A word on the IC50: it is the concentration needed to halve the response being measured. Read a high IC50 as weaker potency in that assay. As to `O=C(Oc1ccc([N+](=O)[O-])cc1)N1CCC(C(O)(c2ccc3c(c2)OCO3)c2ccc3c(c2)OCO3)CC1`, in test [1], the inhibition worked out at 85%. For the same compound, the “fold change (FC)” value in test [2] is recorded as 8. This compound came in with an IC50 in test [3] of 8 nM.
